Patent US20080300298A1, “Honokiol Derivates For the Treatment of Proliferative Disorders” (priority 2005, published 2008)

What was measured:
[1] = tested on: cyclin D1, p27Kip1, p21Cip1/WAF1, EGFR, AKT, ERK2 in MDA-MB-231 cells; test: Western blot of cell cycle and growth signaling proteins; format: cell-based; conditions: MDA-MB-231, 20, 40 and 60 μM, 24 hours
Method: Western blot analysis: Cells were harvested and lysed for total protein extraction in a buffer containing 50 mM Tris-Cl pH 7.4, 150 mM NaCl and 2% NP-40 together with a protease inhibitor cocktail (Comp). Approximately 50-150 μg of protein extract was loaded on a 4-15% polyacrylamide gels (Bio-Rad, Hercules, Calif.), separated electrophoretically and blotted from the gel onto PVDF membrane. The membranes were then blocked with a blocking buffer (5% non-fat dry milk in 1×TBST, i.e. 20 mM Tris-HCl, pH 7.6 containing 0.8% NaCl and 0.1% Tween-20) at room temperature for 1 h. The membranes were incubated with the primary antibodies in blocking buffer, followed by incubation with HRP-labeled secondary antibodies. Immunoactivity was detected with horseradish peroxidase-conjugated secondary antibody and visualized by Enhanced Chemiluminescence (Pierce, Rockford, Ill.). Quantification of the results was performed using AlphaImager 2000 (Alpha Innotech, San Leandro, Calif.).
HNK slows cell cycle in breast cancer cell lines. The effects of HNK (10 μM or 30 μM HNK for 24 hours) on cell cycle were evaluated in MCF-7 and MDA-MB-231 cells. These doses of HNK are less than the LC50 for both cell lines. […] Expression of proteins involved in G1 cell-cycle regulation (massgue) was examined in MDA-MB-231 cells using Western analysis.
HNK inhibits growth signaling pathways. […]

[2] = tested on: AKT, p44/42 MAPK, and Src phosphorylation in SVR cells; test: Western blotting of phosphorylated intracellular proteins; format: cell-based
Text: FIG. 14 depicts the effects of honokiol on the phosphorylation of various intracellular proteins. […] Cells were lysed and analyzed by Western blotting using antibodies specific for the phosphorylated (P-AKT, P-MAPK, and P-Src) or unphosphorylated forms of AKT and MAPK. […] Cells were lysed and analyzed by Western blotting using antibodies specific for the phosphorylated (P-Akt, P-MAPK, and P-Src) or unphosphorylated forms of Akt and MAPK.

[3] = tested on: SU-DHL-4 cells; test: induction of apoptosis; format: cell-based; conditions: cells resistant to doxorubicin and As2O3-induced apoptosis; without activation of caspase 3
Text: However, in contrast to the complete block of As2O3-induced apoptosis by z-VAD-fmk, inhibition of HNK-induced apoptosis by z-VAD-fmk was only partial, evidenced by PARP cleavage and APO2.7 assay (FIGS. 7B and D).
HNK induces apoptosis in SU-DHL4 cells, which express low levels of caspase-8 and -3 and are resistant to doxorubicin, As2O3, melphalan, dexamethasone, bortezomib (Chauhan et al. Cancer Res. 2003; 63:6174-6177), and revlimid. Therefore, agents such as HNK which kill MM cells via both caspase-dependent and caspase-independent pathways may be particularly useful to overcome drug resistance.

[4] = tested on: splenic B cells; test: CD40 mediated cytokine production of splenic B cells from treated mice; format: in vivo, C57BL/6 or mCD40-LMP1 Tg mice; conditions: honokiol 3 mg/day, day 21-70
Method: CD40 mediated IL-6 and TNF-alpha production was also evaluated. […] IL-6 in culture supernatants was assessed by ELISA. Mice were assessed 70 days post-immunization with CII/CF or CFA only (or naïve). Some mice received honokiol (3 mg/day) from day 21-70 post-immunization. […] TNF-a in culture supermatants was assessed by ELISA. Mice were assessed 70 days post-immunization with CII/CF or CFA only (or naïve). Some mice received honokiol (3 mg/day) from day 21-70 post-immunization. […] In LMP1 Tg mice, even negative control mice have lowered IL-6 and TNF-alpha responses. However, IL-10 was not affected, as determined by analyzing the role of Honokiol treatment on B cell IL-10 production. […] IL-10 in culture supermatants was assessed by ELISA. Mice were assessed 70 days post-immunization with CII/CF or CFA only (or naïve). Some mice received honokiol (3 mg/day) from day 21-70 post-immunization.

## C=CCc1ccc(O)c(-c2ccc(O)c(CC=C)c2)c1 [HNK, Honokiol]
[1]
  expression of G1 cell-cycle regulation proteins: reduced the levels of cyclin D1, and upregulated expression of the cyclin-dependent kinase inhibitors, p27Kip1 and p21Cip1/WAF1
[2]; 2.7, 6.7 or 13.3 μg/ml, 2, 6 or 24 h
  phosphorylation of Akt, p44/42 MAPK, Src at low concentrations: inhibits phosphorylation of Akt at low concentrations but not p44/42 MAPK or Src
[2]; 20, 30, 40 or 45 μg/ml, 1 h
  phosphorylation of AKT, p44/42 MAPK, and Src: inhibits phosphorylation of AKT, p44/42 MAPK, and Src
[3]
  apoptosis in SU-DHL-4 cells: induced apoptosis in SU-DHL-4 cells
[4]
  CD40 mediated IL-6 production: CD40 mediated IL-6 production is decreased
  CD40 mediated TNF-alpha production: CD40 mediated TNF-alpha production is decreased
